In patent publication US6372741B1, “Use of CSAID™ compounds as inhibitors of angiogenesis” (SmithKline Beecham Corporation, priority 1996, dated 2002):

Key:
[1] = tested on: granuloma vasculature; test: Microscopic evaluation of vasculature in day 6 granulomas; assay type: in vivo; conditions: treated versus untreated mice
Description: Angiogenesis in the granuloma was microscopically evaluated. The vasculature of day 6 granulomas from both untreated and compound I treated mice was examined. […] In fact, there was a almost no fine capillaries visible, only a few larger vessels.

[2] = tested on: granuloma size (dry weight); test: Murine air pouch granuloma model: granuloma size by dry weight; assay type: in vivo, mice; conditions: for effect on granuloma size as measured by dry weight: day 6 granuloma
Description: (§1) The murine airpouch granuloma model of chronic inflammation (Kimura et al., 1985, J. Pharmacobio-Dyn., 8:393-400; Colville-Nash et al.,1995, J. Pharm. and Exp. Ther., 274:1463-1472) whose disclosure is incorporated herein by reference in its entirety, is characterized by inflammatory cell influx, fibrous tissue proliferation and intense angiogenesis. […] In addition, angiogenesis can be accurately quantitated by a vascular casting method.
(§2) Murine air pouch granuloma model
(§3) Day-1, mice are anesthetized using Aerrane (isoflurane) gas (5%), after which 3mls of air is injected into the dorsal subcutaneous tissue using a 27 g needle. Mice are allowed to recover.
(§4) Day 0, mice are again anesthetized using Aerrane, once anesthetized 0.5 ml of Freunds complete adjuvant with 0.1% v/v croton oil is injected into the air pouch formed on Day-1. The animals also begin their dosing regime (number of days dependent upon study) with the animals typically receiving compound in 0.2 ml N,N, Dimethyl Acetoacetamide(DMA)(Sigma, St. Louis, Mo.)/Cremephor El (Sigma, St. Louis, Mo.)/saline (10/10/80) or other appropriate vehicle. The animals are allowed to recover and all subsequent dosing is performed on the animals in the absence of anesthetics.
(§5) Days 1-5, animals are dosed according to schedule.
Louis, Mo.)/gelatin (5%)(Sigma, St. Louis, Mo.) solution. […]
When the granuloma is removed it is weighed and then dried for 3 days at 45 C and reweighed. The dried tissue is then digested in 0.9 ml of a 0.05M phosphate buffer pH 7.0 containing 12 U/ml^−1 papain (Sigma, St. Louis, Mo.) and 0.33 g/L^−1 N-acetyl-1-Cysteine (Sigma, St. Louis, Mo.) at 57 C for 3 days. After 3 days digestion the carmine red is solubilized by the addition of 0.1 ml 5 mM NaOH. Samples are centrifuged and then filtered using 0.2 um acrodiscs. The carmine content is then determined against a carmine red standard curve (0.5 to 2 mg/ml) generated in extracted tissue from non carmine treated animals and read at 490 nm. Sample and standard values are determined using DeltaSoft Elisa analysis software (Biometallics Inc., Princeton, N.J.). […]

[3] = tested on: angiogenesis in granuloma (vascular index); test: Murine air pouch granuloma model: vascular index by carmine vascular cast; assay type: in vivo, mice; conditions: for maximum reduction in vascular index: Compound I at 50 mg.kg, bid, i.p., versus vehicle control
Description: as §1, §2, §3, §4, §5
[…] Louis, Mo.)/gelatin (5%)(Sigma, St. Louis, Mo.) solution. The animals are then sacrificed by lethal dose of anesthesia and chilled at 4 C for 2 hours prior to the removal of the granuloma tissue.
When the granuloma is removed it is weighed and then dried for 3 days at 45 C and reweighed. The dried tissue is then digested in 0.9 ml of a 0.05M phosphate buffer pH 7.0 containing 12 U/ml^−1 papain (Sigma, St. Louis, Mo.) and 0.33 g/L^−1 N-acetyl-1-Cysteine (Sigma, St. Louis, Mo.) at 57 C for 3 days. After 3 days digestion the carmine red is solubilized by the addition of 0.1 ml 5 mM NaOH. Samples are centrifuged and then filtered using 0.2 um acrodiscs. The carmine content is then determined against a carmine red standard curve (0.5 to 2 mg/ml) generated in extracted tissue from non carmine treated animals and read at 490 nm. Sample and standard values are determined using DeltaSoft Elisa analysis software (Biometallics Inc., Princeton, N.J.). The carmine content is then used to determine the vascular indexes for the various treatments, vascular index being the mg carmine dye/gm dry tissue.

[4] = tested on: TNF-α; test: TNF-α levels in granuloma tissue homogenates by ELISA; assay type: in vivo, mice; conditions: 30 mg/kg orally twice a day; day 7
Description: (§6) The levels of these cytokines over the course to granuloma development were measured to determine if the modulation of their expression by the compound correlated with angiogenesis. Cytokine levels were measured by ELISA using homogenates of granuloma tissue. TNF-α levels rose sharply, peaking at day 7 and dropping back down to moderate levels by day 14 (FIG. 2). […] Thus, the ability of the compound to block the sharp rise in TNF-α and IL-1β between days 5 and 7 correlated well with the ability of the compound to prevent the increase in vascular index that occurs over the same time points.
(§7) Tissue extracts were made by homogenizing granulomas in 0.5 ml 5 mM KH2PO4/0.1 gm wet tissue. IL-1β levels were determined using a Cytoscreen Immunoassay Kit (catalog #KMC 0012) from BioSource International, Camarillo, Calif. TNF-α levels were determined using the following assay: plates were coated with hamster anti-murine TNF-α antibody (Genzyme, Cambridge, Mass.), for 2 hours at 37° C., washed and blocked with a casein-BSA solution (5 gram/L for each) for 1 hour at 37° C., the samples were added and incubated at 4° C. overnight. […] The reaction was terminated with 25 ul 0.1M NaF per well, the O.D. read at 460 nm. Sample values for both ELISAs are calculated using DeltaSoft ELISA analysis software (Biomettalics Inc., Princeton, N.J.).

[5] = tested on: IL-1β; test: IL-1β levels in granuloma tissue homogenates by ELISA; assay type: in vivo, mice; conditions: 30 mg/kg orally twice a day; peak at day 7
Description: as §6, §7

Compound	vasculature of granuloma, microscopic evaluation [1]	granuloma size over time course ([2]; 30 mg/kg orally twice a day from day 0, days 3, 5, 7 and 14)	effect on granuloma size as measured by dry weight [2]	vascular index (VI) compared to control at day 3 ([3]; 30 mg/kg orally twice a day from day 0, day 3)	vascular index (VI) compared to control at days 5, 7 and 14 ([3]; 30 mg/kg orally twice a day from day 0, days 5, 7 and 14)	decrease in the vascular index (in words) ([3]; day 6 granuloma, dosing from induction)	maximum reduction in vascular index ([3]; day 6 granuloma) [%]	TNF-α levels in granuloma [4]	IL-1β expression in granuloma [5]
Nc1nccc(-c2c(-c3ccc(F)cc3)ncn2C2CCNCC2)n1 [Compound I, 1-Piperidine-4-(4-fluorophenyl)-5-(2-aminopyrimidin-4-yl)imidazole]	striking reduction in the vasculature	unaffected by the compound	Neither Compound I nor medroxyprogesterone had an effect	did not cause a significant reduction in VI	lowered significantly	significant and dose dependent decrease	44	greatly reduced TNF-α levels	effectively blocked the increased IL-1β expression
medroxyprogesterone [reference compound]			Neither Compound I nor medroxyprogesterone had an effect				50		
